Source: patent publication US12419305B2, “Antimicrobial compositions” (Firmenich SA, priority 2018, dated 2025)

How the values were obtained:
S. haemolyticus 114126 = test: BCT test (bacterial contact time), 120 s, log reduction / effect fraction; CI by Compusyn; assay type: cell-based; conditions: Staphylococcus haemolyticus, 114126, 2 min, contact 120 s, 25% EtOH; for log reduction at 0.5 % strength: dose 0.5% w/v
Experimental: S. haemolyticus: Suspensions of the S. haemolyticus 114126 strain, isolated from skin, were prepared as follows: Stock cultures (stored at −80° C.) were thawed and sub-cultured onto TSA-TW80 agar plate media, and incubated at 37° C. for 24 h to obtain single colonies. Single colonies of the primary cultures were streaked onto fresh TSA-TW80 plates and incubated at 37° C. for 24 h to prepare secondary cultures. Single colonies of secondary cultures were picked and used to inoculate 50 mL of BHI-TW80 broth. The inoculated broth was incubated at 37° C. at 180 rpm for 18 h. Aliquots (0.5 ml) of the 18 h culture were inoculated into 50 ml of fresh BHI-TW80 broth, and incubated at 37° C. at 180 rpm for approximately 3 hours. When the OD 600 nm value of the broth reached 1-2, cells were harvested by centrifugation at 5000 rpm for 10 min, and then resuspended in fresh BHI-TW80 broth at a concentration of 1-5×10^8 CFU/mL. This suspension was used as the bacterial suspension for the BCT test.
(§1) BCT Test: Test compositions at a range of concentrations (either combinations of more than one perfume ingredient, and comparative compositions comprising the single perfume ingredients) were prepared in ethanol. Five replicates of each test composition were added into 96-well microtiter plates (120 μl per well), with row B containing control compositions containing the ethanol solution alone. 120 μl of bacterial cell suspensions at a concentration of approximately 1×10^8 bacteria per mL (as prepared above) were added to each well of the microtiter plate. The bacterial suspensions were incubated with the test solutions for 45, 60, or 120 seconds. Following the incubation of the bacterial suspensions with the test solutions, serial dilutions of the bacterial suspensions were generated (three serial 1:10 dilutions, followed by 17 serial 1:2 dilutions), in multiwell microtiter plates.
(§2) Each plate was sealed and incubated at 37° C. under agitation (180 rpm). After incubation, the turbidity of the wells (OD600 nm) was determined using a Tecan microplate reader. Turbid wells were regarded as positive growth, due to the presence of viable cells. The total number of viable cells (log CFU) for each sample was calculated. And the log reduction for each test composition at the final concentration (dose) was calculated against the control sample of the ethanol solution.
(§3) Determination of Synergy via the Combination Index (CI): The CI was calculated using Compusyn software (ComboSyn, Inc., as created by Dr. Dorothy Chou in 2005), according to the manufacturer's instructions. The concentration of each test composition (combinations of more than one perfume ingredient, and comparative compositions comprising the single perfume ingredients used to generate the combination) and their corresponding effect fraction was entered, and the corresponding CI calculated.
(§4) When the calculated CI values were less than 0.9, the combination of perfume ingredients was regarded as having synergistic effect. When the calculated CI was between 1.0 a 0.9, the combination of perfume ingredients was regarded as having an additive effect. When the calculated CI was greater than 1.0, the combination of perfume ingredients was regarded as having an antagonistic effect.

E. coli ATCC 10536 = test: BCT test (bacterial contact time), 45 s, log reduction / effect fraction; CI by Compusyn; assay type: cell-based, Escherichia coli; conditions: Escherichia coli, ATCC10536, 45 s, 45 s, in 20% EtOH
Experimental: (§5) E. coli, S. aureus, P. aeruginosa, and S. enterica: Separate suspensions of the E. coli ATCC 10536 strain, S. aureus ATCC 6538 strain, Pseudomonas aeruginosa ATCC 15442 strain, and the Salmonella enterica ATCC 10708 strain were prepared as follows: Stock cultures (stored at −80° C.) were thawed and sub-cultured onto Tryptic Soy Agar (TSA) agar plate media, and incubated at 37° C. for 24 h to obtain single colonies. Single colonies of the primary cultures were streaked onto TSA plates and incubated at 37° for 24 h to generate secondary cultures. Single colonies of secondary cultures picked and used to inoculate into 50 mL of TSB broth. The inoculated TSB broth was incubated at 37° C. at 180 rpm for 18 h. Aliquots (0.5 ml) of the 18 h culture were inoculated into 50 ml of fresh TSB broth, and incubated at 37° C. at 180 rpm for 2-3 hours. When the OD600 nm value of the broth reached 1-2, cells were harvested by centrifugation at 5000 rpm for 10 min, and then resuspended in fresh TSB broth at a concentration of 1-5×10^8 CFU/mL. These suspensions were used as the bacterial suspensions for the BCT test.
as §1, §2, §3, §4

S. aureus ATCC 6538 = test: BCT test (bacterial contact time), 60 s, log reduction / effect fraction; CI by Compusyn; assay type: cell-based, Staphylococcus aureus; conditions: Staphylococcus aureus, ATCC6538, 1 min, 60 s, in 25% EtOH; for log reduction at 1 % strength: dose 1.000 % w/v
Experimental: as §5, §1, §2, §3, §4

[1] = tested on: Pseudomonas aeruginosa ATCC 15442; test: as above; assay type: cell-based; conditions: Pseudomonas aeruginosa, ATCC15442, 1 min, BCT 60 s, in 25% EtOH; for log reduction at 0.3 % strength: Dose 0.3 % w/v; for log reduction at 0.35 % strength: Dose 0.35 % w/v; for log reduction at 0.4 % strength: Dose 0.4 % w/v; for log reduction at 0.45 % strength: Dose 0.45 % w/v; for log reduction at 0.5 % strength: Dose 0.5 % w/v; for log reduction at 0.25 % strength: Dose 0.25 % w/v
Experimental: as §5, §1, §2, §3, §4

[2] = tested on: Salmonella enterica ATCC 10708; test: as above; assay type: cell-based; conditions: Salmonella enterica, ATCC10708, 1 min, BCT 60 s, in 25% EtOH; for log reduction at 0.45 % strength: Dose 0.450 % w/v; for log reduction at 0.25 % strength: Dose 0.25 % w/v
Experimental: as §5, §1, §2, §3, §4

[3] = dose 0.600 % w/v, read-out: Log reduction

O=c1ccc2ccccc2o1 [Coumarine, 2H-chromen-2-one]
log reduction at 0.5 % strength (S. haemolyticus 114126): 0 | log reduction at 0.75 % strength (S. haemolyticus 114126; dose 0.75% w/v): 0.7 | log reduction at 1 % strength (S. haemolyticus 114126; dose 1.0% w/v): 1.7 | log reduction at 1.25 % strength (S. haemolyticus 114126; dose 1.25% w/v): 6.3 | log reduction at 1.5 % strength (S. haemolyticus 114126; dose 1.5% w/v): 7.5 | log reduction at 0.5 % strength (E. coli ATCC 10536; dose 0.500 % w/v): -0.1 | log reduction at 0.6 % strength (E. coli ATCC 10536; [3]): 0.2 | log reduction at 0.65 % strength (E. coli ATCC 10536; dose 0.650 % w/v): 0.5 | log reduction at 0.7 % strength (E. coli ATCC 10536; dose 0.700 % w/v): 2.8 | log reduction at 0.8 % strength (E. coli ATCC 10536; dose 0.800 % w/v): 7.3 | log reduction at 0.5 % strength (S. aureus ATCC 6538; dose 0.500 % w/v, read-out: Log reduction): -0.1 | log reduction at 0.75 % strength (S. aureus ATCC 6538; dose 0.750 % w/v, read-out: Log reduction): 0.4 | log reduction at 0.875 % strength (S. aureus ATCC 6538; dose 0.875 % w/v): 0.8 | log reduction at 1 % strength (S. aureus ATCC 6538; read-out: Log reduction): 2.1 | log reduction at 1.25 % strength (S. aureus ATCC 6538; dose 1.250 % w/v): 7 | log reduction at 0.3 % strength ([1]; read-out: Log reduction): 0.4 | log reduction at 0.35 % strength [1]: 0.4 | log reduction at 0.4 % strength ([1]; read-out: Log reduction): 0.7 | log reduction at 0.45 % strength ([1]; read-out: Log reduction): 1.2 | log reduction at 0.5 % strength [1]: 2.9 | log reduction at 0.3 % strength ([2]; Dose 0.300 % w/v): 0.2 | log reduction at 0.4 % strength ([2]; Dose 0.400 % w/v): 3 | log reduction at 0.45 % strength [2]: 5.1 | log reduction at 0.5 % strength ([2]; Dose 0.500 % w/v): 7.5 | log reduction at 0.6 % strength ([2]; Dose 0.600 % w/v): 7.5

Cc1ccc2c(c1)OCC(=O)CO2 [Calone, 7-methyl-2H-1,5-benzodioxepin-3(4H)-one]
log reduction at 0.5 % strength (S. haemolyticus 114126): 0 | log reduction at 0.7 % strength (S. haemolyticus 114126; dose 0.7% w/v): 0.5 | log reduction at 0.8 % strength (S. haemolyticus 114126; dose 0.8% w/v): 2.9 | log reduction at 0.9 % strength (S. haemolyticus 114126; dose 0.9% w/v): 4.7 | log reduction at 1.2 % strength (S. haemolyticus 114126; dose 1.2% w/v): 6.9 | log reduction at 0.6 % strength (S. aureus ATCC 6538; [3]): 1.6 | log reduction at 0.7 % strength (S. aureus ATCC 6538; dose 0.700 % w/v, read-out: Log reduction): 2.5 | log reduction at 0.8 % strength (S. aureus ATCC 6538; dose 0.800 % w/v): 6.9 | log reduction at 0.9 % strength (S. aureus ATCC 6538; dose 0.900 % w/v): 6.9 | log reduction at 1 % strength (S. aureus ATCC 6538; read-out: Log reduction): 6.9 | log reduction at 0.25 % strength ([1]; read-out: Log reduction): 0.3 | log reduction at 0.3 % strength ([1]; read-out: Log reduction): 1 | log reduction at 0.35 % strength [1]: 2.7 | log reduction at 0.4 % strength ([1]; read-out: Log reduction): 4.3 | log reduction at 0.5 % strength [1]: 6.9 | log reduction at 0.25 % strength [2]: 0.7 | log reduction at 0.3 % strength ([2]; Dose 0.3 % w/v): 2.7 | log reduction at 0.35 % strength ([2]; Dose 0.350 % w/v): 4.2 | log reduction at 0.4 % strength ([2]; Dose 0.4 % w/v): 7.2 | log reduction at 0.45 % strength [2]: 7.8

CC(=O)OCc1ccccc1 [Benzyl acetate, benzyl acetate]
log reduction at 0.25 % strength (S. haemolyticus 114126; dose 0.25% w/v, read-out: Log reduction): 0.2 | log reduction at 0.3 % strength (S. haemolyticus 114126; dose 0.3% w/v, read-out: Log reduction): 0.5 | log reduction at 0.35 % strength (S. haemolyticus 114126; dose 0.35% w/v): 1.3 | log reduction at 0.4 % strength (S. haemolyticus 114126; dose 0.4% w/v, read-out: Log reduction): 2.5 | log reduction at 0.5 % strength (S. haemolyticus 114126): 6.2 | log reduction at 0.25 % strength (S. aureus ATCC 6538; dose 0.250 % w/v, read-out: Log reduction): 0.8 | log reduction at 0.3 % strength (S. aureus ATCC 6538; dose 0.300 % w/v, read-out: Log reduction): 1.9 | log reduction at 0.35 % strength (S. aureus ATCC 6538; dose 0.350 % w/v, read-out: Log reduction): 5.1 | log reduction at 0.4 % strength (S. aureus ATCC 6538; dose 0.400 % w/v, read-out: Log reduction): 6.7 | log reduction at 0.45 % strength (S. aureus ATCC 6538; dose 0.45 % w/v): 7.1 | log reduction at 0.2 % strength ([1]; Dose 0.2 % w/v, read-out: Log reduction): 1.2 | log reduction at 0.25 % strength ([1]; read-out: Log reduction): 3.9 | log reduction at 0.4 % strength ([1]; read-out: Log reduction): 7.4 | log reduction at 0.45 % strength ([1]; read-out: Log reduction): 7.4 | log reduction at 0.5 % strength [1]: 7.4 | log reduction at 0.15 % strength ([2]; Dose 0.15 % w/v): 0 | log reduction at 0.2 % strength ([2]; Dose 0.2 % w/v): 1.9 | log reduction at 0.225 % strength ([2]; Dose 0.225 % w/v): 5 | log reduction at 0.25 % strength [2]: 6.5 | log reduction at 0.3 % strength ([2]; Dose 0.3 % w/v): 7.7
